This assay has as its system Penicillium Chrysogenom. Description: Modified Agar plate method, fungicidal activity against Penicillium spores (number of colonies). The following applies: Treatment II: 1 ml solution of Captan in water at 200 ppm. The class given is cell-based.

Consider `O=C1C2CC=CCC2C(=O)N1SC(Cl)(Cl)Cl` (stereo not shown) [CAPTAN, Captan], for which the “inhibition (observation of number of colonies)” value is “total inhibition”.
